# Test results taken from patent US20090280160A1, “PHENYLEPHRINE PHARMACEUTICAL FORMULATIONS AND COMPOSITIONS FOR TRANSMUCOSAL ABSORPTION” (Schering-Plough Healthcare Products, Inc., priority 2007, published 2009).
# Molecular target: T1, α2b adrenoreceptor (Homo sapiens, UniProt P18089)
# T1 construct: expressed in transfected cells; host or cells: CHO (Chinese hamster ovary) cells, membranes
# T1 sequence (P18089 1-450): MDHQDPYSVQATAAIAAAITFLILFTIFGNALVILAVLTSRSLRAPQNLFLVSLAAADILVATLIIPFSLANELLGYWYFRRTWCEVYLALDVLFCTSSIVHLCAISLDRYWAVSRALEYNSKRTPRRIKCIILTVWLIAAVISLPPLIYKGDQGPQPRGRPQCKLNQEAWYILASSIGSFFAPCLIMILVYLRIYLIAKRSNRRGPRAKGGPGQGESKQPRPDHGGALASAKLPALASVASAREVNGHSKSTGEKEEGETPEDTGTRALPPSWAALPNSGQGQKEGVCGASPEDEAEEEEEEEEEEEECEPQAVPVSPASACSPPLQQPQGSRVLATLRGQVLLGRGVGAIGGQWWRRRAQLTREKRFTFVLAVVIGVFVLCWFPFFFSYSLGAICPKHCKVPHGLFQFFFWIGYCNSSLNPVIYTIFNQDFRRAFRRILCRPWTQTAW
# Assay: [35S]-GTPγS binding exchange, α2b CHO cell membranes
# Assay type: biochemical
# Conditions: for stimulation of [35S]-GTPγS binding, α2b (in words): CHO cell membranes
# Description: The affinity and activity of phenylephrine metabolites were evaluated in human recombinant α1 and α2 adrenoreceptor binding and activity assays. […] Affinity of the metabolites was determined by receptor binding assays. Functional activity of the metabolites was assessed using an [^35S]-GTPγS binding exchange assay for the α2 receptor subtypes and a cell-based calcium flux response for the α1 receptor subtypes.
# Assay buffer was 75 mM Tris-HCl pH 7.4, 12.5 mM MgCl2, 2 mM EDTA and 1 μM GDP. Plates were counted on a Packard TopCount. The percent increase over basal binding of [^35S]-GTPγS, a measure of efficacy, was calculated as follows: 100×[[mean total sample cpm−basal cpm]÷by basal cpm]. Basal cpm was defined as the mean cpm in the absence of agonist compound minus the mean non-specific binding cpm.
# Each metabolite was evaluated in each assay in at least 2 independent experiments and a representative assay of each metabolite/assay combination is shown.
smiles,measurement,setting,value
"CNC[C@H](O)c1cccc(O[C@@H]2O[C@H](C(=O)O)[C@@H](O)[C@H](O)[C@H]2O)c1 [PE glucuronide, (R)-PE glucuronide]","stimulation of [35S]-GTPγS binding, α2b (in words)",,pharmacologically inactive
same,"stimulation of [35S]-GTPγS binding, α2b (in words)",listed as PE glucuronide b2,No stimulatory activity
O=C(O)C(O)c1cccc(O)c1 (centres unmarked) [3-hydroxymandelic acid],"stimulation of [35S]-GTPγS binding, α2b (in words)",,no activity
same,"agonist activity, α2b [35S]-GTPγS assay (in words)",highest concentration evaluated (10 μM),no activity
same,EC50,"read-out: EC50, a2b GTPγS (class symbol)",> 10 µM
